The record followed here is patent US9428503B2, “Imidazo[4,5-c]quinolin-2-one compounds and their use in treating Cancer” (AstraZeneca AB, priority 2014, dated 2016).

Where a name gives a salt, the structure may show the parent alone.

Common to all, as to format: cell-based
In test [1] the target is ATM kinase (Homo sapiens (Human), UniProt Q13315). Put plainly: Assay a) ATM cellular potency assay (pATM Ser1981 in X-ray irradiated HT29 cells). The note with it: HT29 cells, pATM Ser1981 after X-ray irradiation; geometric mean where repeated; read-out: Assay a) ATM Cell IC50.
Test [2] deals with mTOR (Homo sapiens (Human), UniProt P42345). Put plainly: Assay d) mTOR cellular potency assay (phospho-AKT Ser473 in MDA-MB-468 cells). The note with it: MDA-MB-468 cells, phospho-AKT Ser473, 2 h; geometric mean where repeated; read-out: Assay d) mTOR Cell IC50.
Test [3] has as its target PI3K-α (Homo sapiens, UniProt P42336). Put plainly: Assay c) PI3K cellular potency assay (phospho-Akt T308 ELISA in BT474 cells). The note with it: BT474 cells, phospho-Akt T308, 2 h; geometric mean where repeated; read-out: Assay c) PI3Kα Cell IC50. For orientation: In an ELISA, binding on a coated surface is turned into a signal by an enzyme label.
Test [4] has as its target ATR kinase (Homo sapiens (Human), UniProt Q13535). Put plainly: Assay b) ATR cellular potency assay (pChk1 Ser345 in HT29 cells treated with 4NQO). The note with it: HT29 cells, pChk1 Ser345 after 4NQO; geometric mean where repeated; read-out: Assay b) ATR Cell IC50.

Chain of ATM kinase (Q13315 whole entry): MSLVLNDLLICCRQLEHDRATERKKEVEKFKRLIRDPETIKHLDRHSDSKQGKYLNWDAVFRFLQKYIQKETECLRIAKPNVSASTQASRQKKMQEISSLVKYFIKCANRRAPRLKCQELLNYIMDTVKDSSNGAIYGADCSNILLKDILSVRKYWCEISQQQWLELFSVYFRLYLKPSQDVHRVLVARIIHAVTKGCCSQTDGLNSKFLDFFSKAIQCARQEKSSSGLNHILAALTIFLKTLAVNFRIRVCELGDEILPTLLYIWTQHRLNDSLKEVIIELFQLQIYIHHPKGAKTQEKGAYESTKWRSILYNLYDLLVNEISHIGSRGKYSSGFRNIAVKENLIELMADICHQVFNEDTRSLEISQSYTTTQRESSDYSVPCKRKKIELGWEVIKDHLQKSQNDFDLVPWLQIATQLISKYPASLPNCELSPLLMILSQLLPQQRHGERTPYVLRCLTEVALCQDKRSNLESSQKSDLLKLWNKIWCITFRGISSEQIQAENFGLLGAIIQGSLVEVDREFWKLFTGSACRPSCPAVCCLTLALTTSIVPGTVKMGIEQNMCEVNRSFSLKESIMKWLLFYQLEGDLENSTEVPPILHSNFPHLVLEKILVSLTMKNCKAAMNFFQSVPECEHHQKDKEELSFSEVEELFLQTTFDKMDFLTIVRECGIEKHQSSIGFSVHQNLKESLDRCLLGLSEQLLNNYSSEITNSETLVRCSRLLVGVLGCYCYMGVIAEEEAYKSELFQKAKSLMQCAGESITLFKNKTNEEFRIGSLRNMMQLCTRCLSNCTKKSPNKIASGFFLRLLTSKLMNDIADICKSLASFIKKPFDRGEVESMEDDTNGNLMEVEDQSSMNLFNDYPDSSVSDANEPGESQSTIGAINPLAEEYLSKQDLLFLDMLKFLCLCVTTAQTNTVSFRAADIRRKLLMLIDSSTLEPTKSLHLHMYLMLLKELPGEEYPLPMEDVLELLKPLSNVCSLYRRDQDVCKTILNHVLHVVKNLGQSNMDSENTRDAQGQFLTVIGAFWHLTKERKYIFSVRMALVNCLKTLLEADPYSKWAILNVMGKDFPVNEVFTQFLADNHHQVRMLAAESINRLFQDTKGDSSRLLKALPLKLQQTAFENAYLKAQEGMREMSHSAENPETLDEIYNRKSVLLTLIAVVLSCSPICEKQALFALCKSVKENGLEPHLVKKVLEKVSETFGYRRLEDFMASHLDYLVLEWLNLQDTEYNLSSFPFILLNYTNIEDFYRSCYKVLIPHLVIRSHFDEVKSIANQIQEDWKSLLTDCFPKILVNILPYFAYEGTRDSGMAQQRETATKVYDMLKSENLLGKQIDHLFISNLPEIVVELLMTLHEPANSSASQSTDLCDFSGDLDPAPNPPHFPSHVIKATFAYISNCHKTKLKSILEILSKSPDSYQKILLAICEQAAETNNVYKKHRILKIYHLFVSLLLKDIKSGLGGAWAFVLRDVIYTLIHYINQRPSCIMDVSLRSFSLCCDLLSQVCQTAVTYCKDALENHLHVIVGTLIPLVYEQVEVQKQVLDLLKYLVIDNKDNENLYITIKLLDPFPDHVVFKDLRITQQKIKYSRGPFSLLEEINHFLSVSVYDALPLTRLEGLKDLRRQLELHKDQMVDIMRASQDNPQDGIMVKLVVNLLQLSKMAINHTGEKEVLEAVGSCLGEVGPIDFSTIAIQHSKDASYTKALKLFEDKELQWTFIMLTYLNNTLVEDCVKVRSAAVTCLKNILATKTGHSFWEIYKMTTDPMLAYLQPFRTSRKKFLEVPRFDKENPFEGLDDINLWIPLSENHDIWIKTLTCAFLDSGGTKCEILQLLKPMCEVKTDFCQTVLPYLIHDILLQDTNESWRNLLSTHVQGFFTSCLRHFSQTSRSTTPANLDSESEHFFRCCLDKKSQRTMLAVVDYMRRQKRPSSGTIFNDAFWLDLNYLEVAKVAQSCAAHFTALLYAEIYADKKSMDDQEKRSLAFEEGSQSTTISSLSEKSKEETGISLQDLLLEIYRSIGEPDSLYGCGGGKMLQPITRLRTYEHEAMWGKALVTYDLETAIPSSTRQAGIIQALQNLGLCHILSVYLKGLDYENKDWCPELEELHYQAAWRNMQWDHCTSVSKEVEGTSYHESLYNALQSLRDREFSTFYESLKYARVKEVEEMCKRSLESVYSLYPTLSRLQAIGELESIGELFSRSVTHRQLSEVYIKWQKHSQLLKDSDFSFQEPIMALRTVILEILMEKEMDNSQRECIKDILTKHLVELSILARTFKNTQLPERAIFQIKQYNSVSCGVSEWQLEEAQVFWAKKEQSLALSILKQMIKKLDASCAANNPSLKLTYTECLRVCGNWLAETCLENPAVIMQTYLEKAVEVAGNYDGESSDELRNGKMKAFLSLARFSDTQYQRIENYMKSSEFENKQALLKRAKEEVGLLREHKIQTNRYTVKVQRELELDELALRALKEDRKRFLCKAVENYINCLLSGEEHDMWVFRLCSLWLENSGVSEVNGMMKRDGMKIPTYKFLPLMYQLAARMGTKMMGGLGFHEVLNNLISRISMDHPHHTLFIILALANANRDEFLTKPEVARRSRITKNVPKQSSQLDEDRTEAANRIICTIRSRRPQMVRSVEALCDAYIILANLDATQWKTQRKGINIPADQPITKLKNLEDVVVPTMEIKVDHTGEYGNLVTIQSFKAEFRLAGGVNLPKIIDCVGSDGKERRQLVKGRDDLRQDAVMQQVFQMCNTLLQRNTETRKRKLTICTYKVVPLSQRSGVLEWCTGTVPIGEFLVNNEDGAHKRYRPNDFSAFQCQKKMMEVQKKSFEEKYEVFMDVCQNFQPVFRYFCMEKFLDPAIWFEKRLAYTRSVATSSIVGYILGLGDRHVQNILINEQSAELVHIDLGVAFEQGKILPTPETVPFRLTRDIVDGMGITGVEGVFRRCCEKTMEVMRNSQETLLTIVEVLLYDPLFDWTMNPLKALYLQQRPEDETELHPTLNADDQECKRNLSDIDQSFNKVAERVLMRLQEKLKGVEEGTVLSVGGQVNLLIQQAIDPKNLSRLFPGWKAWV
Chain of PI3K-α (P42336 whole entry, looked up): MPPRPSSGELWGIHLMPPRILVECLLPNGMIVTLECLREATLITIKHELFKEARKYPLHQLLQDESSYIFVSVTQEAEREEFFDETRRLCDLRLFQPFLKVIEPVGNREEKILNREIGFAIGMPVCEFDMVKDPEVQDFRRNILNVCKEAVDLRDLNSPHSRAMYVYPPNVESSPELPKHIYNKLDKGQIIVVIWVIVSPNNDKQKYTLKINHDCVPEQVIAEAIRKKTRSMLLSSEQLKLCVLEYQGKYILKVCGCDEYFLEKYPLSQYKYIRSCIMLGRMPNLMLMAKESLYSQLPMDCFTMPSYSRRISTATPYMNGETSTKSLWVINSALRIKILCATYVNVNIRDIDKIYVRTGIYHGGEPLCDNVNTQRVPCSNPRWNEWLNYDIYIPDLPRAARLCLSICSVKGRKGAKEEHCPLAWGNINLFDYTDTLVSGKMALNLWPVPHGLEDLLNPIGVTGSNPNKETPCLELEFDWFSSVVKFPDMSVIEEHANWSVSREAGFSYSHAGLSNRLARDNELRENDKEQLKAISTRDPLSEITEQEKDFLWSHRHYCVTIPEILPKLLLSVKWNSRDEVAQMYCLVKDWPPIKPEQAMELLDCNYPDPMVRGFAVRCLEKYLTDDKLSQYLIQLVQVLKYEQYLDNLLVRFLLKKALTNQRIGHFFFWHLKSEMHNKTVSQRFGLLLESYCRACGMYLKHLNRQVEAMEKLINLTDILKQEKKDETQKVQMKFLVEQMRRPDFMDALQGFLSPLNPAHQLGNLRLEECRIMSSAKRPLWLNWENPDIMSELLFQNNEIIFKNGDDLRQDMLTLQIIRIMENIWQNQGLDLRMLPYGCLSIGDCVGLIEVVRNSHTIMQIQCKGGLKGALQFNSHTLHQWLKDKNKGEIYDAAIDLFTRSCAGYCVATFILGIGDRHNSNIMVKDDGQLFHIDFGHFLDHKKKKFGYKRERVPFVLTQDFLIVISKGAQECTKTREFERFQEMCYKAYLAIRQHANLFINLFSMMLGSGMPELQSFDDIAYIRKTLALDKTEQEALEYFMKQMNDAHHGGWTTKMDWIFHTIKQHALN

In the case of `Cn1c(=O)n(C2COC2)c2c3cc(-c4ccc(OCCCN5CCCCC5)nc4)ccc3ncc21` [Example 56, 3-methyl-1-(oxetan-3-yl)-8-[6-[3-(1-piperdyl)propoxy]-3-pyridyl]imidazo[4,5-c]quinolin-2-one trifluoroacetic acid salt], the IC50 was 0.00302 µM in test [1], 12.4 µM in test [2], over 26.3 µM in test [3] and over 30 µM in test [4].
For the compound `CO[C@H]1C[C@@H](n2c(=O)n(C)c3cnc4cc(F)c(-c5ccc(OCCCN(C)C)nc5)cc4c32)C1` [Example 6, 8-[6-(3-dimethylaminopropoxy)pyridin-3-yl]-7-fluoro-1-(cis-3-methoxycyclobutyl)-3-methylimidazo[4,5-c]quinolin-2-one], the IC50 in test [1] is 0.00105 µM; in test [2] it was over 16.9 µM; in test [3] it was over 30 µM; in test [4] it was over 30 µM.
In the case of `CN(C)CCCOc1ccc(-c2cc3c(cc2F)ncc2c3n([C@H]3CCCOC3)c(=O)n2C)c(F)n1` [Example 48, 8-[6-[3-(Dimethylamino)propoxy]-2-fluoro-3-pyridyl]-7-fluoro-3-methyl-1-[(3S)-tetrahydropyran-3-yl]imidazo[4,5-c]quinolin-2-one methanesulfonic acid salt], the IC50 in test [1] is 0.00102 µM; in test [2], 23 µM; in test [3], over 9.4 µM; in test [4], over 30 µM.
Regarding `CN(C)CCCOc1ccc(-c2ccc3ncc4c(c3c2)n(C2CCOCC2)c(=O)n4C)c(F)n1` [Example 21, 8-[6-(3-dimethylaminopropoxy)-2-fluoropyridin-3-yl]-3-methyl-1-(oxan-4-yl)imidazo[5,4-c]quinolin-2-one], the IC50 in test [1] is 0.000301 µM; in test [2] it was 0.797 µM; in test [3] it was 0.68 µM; in test [4], over 30 µM.
With `CO[C@H]1CC[C@H](n2c(=O)n(C)c3cnc4ccc(-c5ccc(OCCCN6CCCCC6)nc5)cc4c32)C1` [Example 65, 1-[(1S,3S)-3-Methoxycyclopentyl]-3-methyl-8-[6-[3-(1-piperidyl)propoxy]-3-pyridyl]imidazo[4,5-c]quinolin-2-one], the 50% inhibitory concentration (IC50) in test [1] was 0.00022 µM; in test [2], 6.34 µM; in test [3], 1.84 µM; in test [4] it was over 26.6 µM.
Taken in the same sequence, the figures for `CN(C)CCCOc1ccc(-c2ccc3ncc4[nH]c(=O)n(C5CCOCC5)c4c3c2)cn1` [Example 13, 8-[6-(3-dimethylaminopropoxy)pyridin-3-yl]-1-(oxan-4-yl)-3H-imidazo[4,5-c]quinolin-2-one] were 0.00322 µM, 0.248 µM, 1.52 µM and over 30 µM.
The matching figures for `CN(C)CCCOc1ccc(-c2cc3c(cc2F)ncc2c3n(C3CCOCC3)c(=O)n2C)cn1` [Example 8, 8-[6-(3-dimethylaminopropoxy)pyridin-3-yl]-7-fluoro-3-methyl-1-(oxan-4-yl)imidazo[5,4-c]quinolin-2-one]: 0.000782 µM, 14 µM, 18.1 µM and over 30 µM.
Taken in the same sequence, the figures for `Cn1c(=O)n(C2CCOCC2)c2c3cc(-c4ccc(OCCCN5CCC5)nc4)ccc3ncc21` [Example 39, 8-[6-[3-(azetidin-1-yl)propoxy]pyridin-3-yl]-3-methyl-1-(oxan-4-yl)imidazo[5,4-c]quinolin-2-one] were 0.00133 µM, 1.27 µM, 0.828 µM and 10.7 µM.
As to `CO[C@H]1CC[C@H](n2c(=O)n(C)c3cnc4cc(F)c(-c5ccc(OCCCN(C)C)nc5)cc4c32)C1` [Example 63, 8-[6-[3-(Dimethylamino)propoxy]-3-pyridyl]-7-fluoro-1-[(1S,3S)-3-methoxycyclopentyl]-3-methyl-imidazo[4,5-c]quinolin-2-one], the concentration for half-maximal inhibition (IC50) in test [1] is 0.00031 µM; in test [2], 10.8 µM; in test [3] it was 3.28 µM; in test [4] it was over 30 µM.
With `CO[C@H]1C[C@@H](n2c(=O)n(C)c3cnc4cc(F)c(-c5ccc(OCCCN(C)C)nc5F)cc4c32)C1` [Example 19, 8-[6-(3-dimethylaminopropoxy)-2-fluoropyridin-3-yl]-7-fluoro-1-(cis-3-methoxycyclobutyl)-3-methylimidazo[4,5-c]quinolin-2-one], the IC50 was 0.00262 µM in test [1], 13.7 µM in test [2], over 28 µM in test [3] and over 30 µM in test [4].
Taken in the same sequence, the figures for `CO[C@@H]1CC[C@@H](n2c(=O)n(C)c3cnc4ccc(-c5ccc(OCCCN(C)C)nc5)cc4c32)C1` [Example 25, 8-[6-(3-Dimethylaminopropoxy)pyridin-3-yl]-1-[(1R,3R)-3-methoxycyclopentyl]-3-methylimidazo[4,5-c]quinolin-2-one] were 0.000315 µM, 1.19 µM, 1.05 µM and over 20.7 µM.
Taken in the same sequence, the figures for `CN(C)CCCOc1ccc(-c2cc3c(cc2F)ncc2c3n(C3(C)CCOCC3)c(=O)n2C)cn1` [Example 3, 8-[6-(3-Dimethylaminopropoxy)pyridin-3-yl]-7-fluoro-3-methyl-1-(4-methyloxan-4-yl)imidazo[5,4-c]quinolin-2-one] were 0.00203 µM, 4.93 µM, 22.4 µM and over 30 µM.
As to `Cn1c(=O)n(C2CCCOC2)c2c3cc(-c4ccc(OCCCN5CCC5)nc4)ccc3ncc21` (stereo in doubt) [Example 60, 8-[6-[3-(azetidin-1-yl)propoxy]-3-pyridyl]-3-methyl-1-[(3S)-tetrahydropyran-3-yl]imidazo[4,5-c]quinolin-2-one], the IC50 in test [1] was 0.000765 µM; in test [2] it was 1.36 µM; in test [3] it was 0.499 µM; in test [4] it was over 24 µM.
Take `CO[C@H]1C[C@@H](n2c(=O)[nH]c3cnc4ccc(-c5ccc(OCCCN(C)C)nc5)cc4c32)C1` [Example 12, 8-[6-(3-dimethylaminopropoxy)pyridin-3-yl]-1-(cis-3-methoxycyclobutyl)-3H-imidazo[4,5-c]quinolin-2-one]: the IC50 in test [1] is 0.00103 µM; in test [2], 0.54 µM; in test [3] it was 0.769 µM; in test [4] it was over 25.2 µM.
Taken in the same sequence, the figures for `Cn1c(=O)n(C2CCC2)c2c3cc(-c4ccc(OCCCN5CCCC5)nc4)ccc3ncc21` [Example 58, 1-cyclobutyl-3-methyl-8-[6-(3-pyrrolidin-1-ylpropoxy)-3-pyridyl]imidazo[4,5-c]quinolin-2-one] were 0.00031 µM, 7.29 µM, over 9.56 µM and over 28.1 µM.
The matching figures for `Cn1c(=O)n([C@H]2CCCOC2)c2c3cc(-c4ccc(OCCCN5CCCC5)nc4)c(F)cc3ncc21` [Example 23, 7-fluoro-3-methyl-8-[6-(3-pyrrolidin-1-ylpropoxy)-3-pyridyl]-1-[(3S)-tetrahydropyran-3-yl]imidazo[4,5-c]quinolin-2-one]: 0.000563 µM, 18.2 µM, over 30 µM and over 30 µM.

What is called IC50 is the point on the concentration scale where inhibition reaches its midpoint.
